Experiments:
Assay in all cases: Substrate saturation kinetic analysis of purified GLYAT
[1] = target: GLYAT variant SEQ ID NO:7 (derived from SEQ ID NO:1 and 2) (Bacillus licheniformis, UniProt Q65LG7, A28V/D131E/E119K/E14D/E65Q/E67K/E68K/E79G/E83D/G37R/G38S/G48A/I132L/I135A/I15L/I19V/I2L/I53V/I91V/K101R/K144R/K58Q/L105M/L106I/L26I/L36T/L97I/M75V/N109F/R47G/R92K/T33S/T89S/V114A/Y130F/Y31W/Y45F); format: biochemical
Method: (§1) E. coli cultures in LB or 2×YT were grown overnight at 37° C. to saturation. The cells were used as a 2% inoculum into fresh media. When OD reached 0.6, IPTG was added to 0.2 mM and growth was continued for at least 6 hours. Cells were harvested by centrifugation and stored at −80° C. Cells were lysed with BPER (Pierce) containing 1 mM dithiothreitol, 0.2 mg/ml lysozyme, 2 mg/ml protease inhibitor cocktail (Sigma bacterial cell cocktail, P8465) and endonuclease. Lysate supernatants were passed through a column of NHS-activated Agarose (Thermo, #26197) derivatized with coenzyme A. Columns were washed with 25 mM Hepes, pH 7, containing progressively higher concentrations of KCl, then eluted with 25 mM Hepes, 100 mM KCl, 10% ethylene glycol and 1 mM acetyl CoA. Purity as evaluated by polyacrylamide gel electrophoresis was deemed consistently high enough to be assumed to be 100%. Protein concentration was determined with the Bradford assay using a large-scale lot of produced GLYAT protein as standard.
(§2) Kinetic parameters for various substrates were obtained using a range of seven substrate concentrations plus a blank containing none of the varied substrate. The non-varied substrate was present at a saturating concentration. Six-microliter aliquots of 50-fold concentrated stock solutions of the varied substrate were placed in a 96-well assay plate (Greiner BioOne UV-Star). Reactions were started with the addition of 294 ul of 25 mM Hepes, pH 7.0, 100 mM KCL, 10% ethylene glycol, the non-varied substrate and 10 to 200 nM enzyme. Absorbance was monitored for one minute with a Spectramax 384 Plus plate reader (Molecular Devices). If the amino acid present at position 30 (29 if alanine is absent at position 2) was cysteine, absorbance was monitored at 235 nm, which directly detects cleavage of the sulfoester bond of acetyl CoA. If the amino acid present at position 30 (29 if alanine is absent at position 2) was isoleucine, 0.5 mM 5,5′-dithiobis-(2-nitrobenzoic acid), which reacts with the coenzyme A thiol generated in the enzyme catalyzed reaction, was included in the reaction mix and absorbance was monitored at 412 nm. Initial rates were processed by the Softmax software to obtain kinetic parameters, using the double-reciprocal transformation.

[2] = target: T1, native GLYAT (glyphosate-N-acetyltransferase), SEQ ID NO:173 (Bacillus licheniformis, UniProt Q65LG7); format: biochemical; settings: Table 5; native GLYAT SEQ ID NO:173; ratio of kcat/Km asp to kcat/Km glyph
T1 sequence (Q65LG7 1-146): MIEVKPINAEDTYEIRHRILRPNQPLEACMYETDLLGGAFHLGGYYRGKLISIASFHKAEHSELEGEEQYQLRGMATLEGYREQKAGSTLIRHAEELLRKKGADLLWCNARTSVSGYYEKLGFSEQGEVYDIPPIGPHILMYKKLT
Method: as §1, §2

[3] = target: GLYAT (glyphosate-N-acetyltransferase), parent of saturation mutagenesis (already fit protein), SEQ ID NO:26 (derived from SEQ ID NO:1 and 2) (Bacillus licheniformis, UniProt Q65LG7, A28V/C29I/D131E/E14D/E65Q/E67K/E68K/E83D/G37R/I132T/I135A/I15L/I19V/I53V/I91V/K101R/K144R/K58Q/L105M/L26I/L97I/M75V/R47G/R92K/T89S/V114A/Y130F/Y45F); format: biochemical
Chain of GLYAT (glyphosate-N-acetyltransferase), parent of saturation mutagenesis (already fit protein), SEQ ID NO:26 (derived from SEQ ID NO:1 and 2) (Q65LG7 entry or part of it with the stated changes): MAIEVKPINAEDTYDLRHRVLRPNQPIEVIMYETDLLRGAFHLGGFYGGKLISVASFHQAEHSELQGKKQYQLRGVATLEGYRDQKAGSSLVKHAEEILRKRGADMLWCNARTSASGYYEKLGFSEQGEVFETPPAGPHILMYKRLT
Method: as §1, §2
The sequences with the new substitutions were derived through a combination of saturation mutagenesis of an already fit protein (SEQ ID NO:26) and an effective screening cascade as a means of identifying the improved genes (Examples 1-2). Regions in which novel changes are concentrated include helix H2a (positions 23 and 25-29) and the hairpin formed by strands B6 and B7 (positions 124-144). These two structures are components of the amino substrate binding site. Helix H3, the backbone to which the central beta sheet is anchored, is a region where 24% of the novel substitutions (17 out of 71) disclosed in Table 4 are concentrated into 11% of the positions (16 out of 146). None of those are near enough to the active site to influence substrate specificity directly. In three cases, multiple novel substitutions were discovered immediately or nearly adjacent to conserved amino acids shown previously to contribute to the catalytic mechanism (Siehl D L et. al., J Biol Chem, 282:11446, 2007). The catalytic amino acids for which this is the case are R21, R111, H138 and the nearby positions with multiple substitutions are 23, 112 and 137. The diverse amino acids at these positions may influence the orientation of the neighboring catalytic amino acids so as to selectively optimize catalysis with the preferred substrate, glyphosate.

[4] = target: GLYAT variant SEQ ID NO:5 (derived from SEQ ID NO:1 and 2) (Bacillus licheniformis, UniProt Q65LG7, A28V/D131E/E14D/E65Q/E67K/E68K/G37R/I132T/I135A/I15L/I19V/I53V/I91V/K101R/K144R/K58Q/L105M/L106I/L26I/L97I/M75V/R47G/R92K/T89S/V114A/Y130F/Y45F); settings: pH 7.0
[5] = target: GLYAT variant SEQ ID NO:9 (derived from SEQ ID NO:1 and 2) (Bacillus licheniformis, UniProt Q65LG7, A28V/D131E/E119K/E14D/E65Q/E67K/E68K/G37R/G38S/I132T/I135A/I15L/I19V/I53V/I91V/K101R/K144R/K58Q/L105M/L26I/L97I/M75V/R47G/R92K/T89S/V114A/Y130F/Y45F); settings: pH 7.0
[6] = target: GLYAT variant SEQ ID NO:10 (derived from SEQ ID NO:1 and 2) (Bacillus licheniformis, UniProt Q65LG7, A28V/D131E/E14D/E65Q/E67K/E68K/G37R/G38S/H61R/I132T/I135A/I15L/I19V/I53V/I91V/K101R/K144R/K58Q/L105M/L106I/L26I/L97I/M75V/R47G/R92K/T89S/V114A/Y130F/Y45F); settings: pH 7.0
[7] = pH 7.0, non-varied substrate saturating

**Q.** Which results are given for `N[C@@H](CC(=O)O)C(=O)O` [aspartate]?
**A.** Asp as % of glyph (kcat/KM asp / kcat/KM glyph) ([1]; pH 7.0): 0.154%; kcat (aspartate) [1, 7]: 1.52 s⁻¹; kcat/KM (aspartate) [1, 7]: 13.7 M⁻¹ s⁻¹; kcat/Km asp, % glyph [2]: 55.6%; Asp as % of glyph (kcat/KM asp / kcat/KM glyph) ([3]; pH 7.0): 0.038%; kcat (aspartate) [3, 7]: 1.5 s⁻¹; kcat/KM (aspartate) [3, 7]: 16 M⁻¹ s⁻¹; Asp as % of glyph (kcat/KM asp / kcat/KM glyph) [4]: 0.059%; Asp as % of glyph (kcat/KM asp / kcat/KM glyph) [5]: 0.073%; Asp as % of glyph (kcat/KM asp / kcat/KM glyph) [6]: 0.091%
